Experimental findings from patent US8193175B2, “Ruthenium complexes for treating cancers” (Universite de Strasbourg, priority 2004, dated 2012) are described below.

“Also recorded” adds a separate entry of the source.

The test system of one data set is A172 cells. Briefly: Western blot of p53, p73, p21 and Bax in A172 cells. The class given is cell-based, human. On the procedure:
FIG. 3: Detection of p53 and p73 in A172 cells treated with CDR. The A172 cells were treated with the concentrations indicated (2, 5 or 10 μM) with the various compounds and for the periods of time indicated (24 hrs or 6 hrs). The proteins were extracted with a lysis buffer and were separated on 10% SDS-Page gel. After being transferred onto nitrocellulose, the p53 and p73 proteins were detected by Western blot using anti-p53 (pAb1801) and anti-p73 (1/200, Ab2, Oncogene) antibody.
FIG. 4: Detection of p21 and Bax in A172 cells treated with CDR. The A172 cells were treated with the various compounds (10 μM) for 24 hrs. The proteins were extracted with a lysis buffer and were separated on 10% SDS-Page gel. After being transferred onto nitrocellulose, the p21 and Bax proteins were detected by Western blot using anti-p21 (1/200, Oncogene) and anti-Bax (1/2000, Santacruz) antibody.
(§1) For the purpose of determining the molecular mechanisms used by the ruthenium derivatives and comparing them with those induced by cisplatinum, the expression of p53, p73 p21 and bax in the A172 and HCT116 lines was analysed.
On the technique in general: In western blotting, separated proteins are transferred to a membrane and probed.

The test system of another data set is MOLT-4. Briefly: Proliferation test (UptiBlue) on MOLT-4. In kind it is cell-based, human. To be noted: p53 expressing line; read-out: IC50, proliferation of MOLT-4 cells. Here is the method:
(§2) The products are tested on different cell lines. The cells used are RDM4 from a murine T lymphoma and a MOLT-4 line originating from an acute lymphoblastic leukemia. These cancer lines both express the p53 protein, unlike the HL-60 cells from a human promyelocytary leukemia where, following deletion of its gene, p53 is absent.
(§3) All of these cells are cultivated in RPMI 1640-Glutamax, supplemented by 10% calf foetal serum heat inactivated at 56° C. for 30 minutes, 1 mM sodium pyruvate, 1 mM non-essential amino acids and 50 μg/mL gentamycine (Life Technologies, Cergy Pontoise, France). The cultures are kept in an incubator at 37° C. with a moisture saturated atmosphere, with 5% CO2.
This test uses the UptiBlue reagent (Interchim, Montluçon, France), metabolised by the living cells. The cells are incubated on plates with 96 wells with 10^4 cells/well (200 μL) with the product and cultivated for 72 hours. Then, 20 μL UptiBlue are added to each well. After 3 hours incubation, the fluorescence of the samples contained in the plates is measured at 590 nm (excitation at 560 nm), using a Fluorolite 1000 microplate reader (Dynex technologies, Issy-Les-Moulineaux, France). […]

The test system of a further data set is HCT116 cells. Briefly: Western blot of p53, p21 and phospho-histone H3 in HCT116 cells. To be noted: 10 μM. In kind it is cell-based, human. On the procedure:
FIG. 5: Detection of p53, p21 and of the phosphorylation of histone H3 in the HCT116 cells treated with CDR. The HCT116 cells were treated with the various compounds (10 μM) and for the periods of time indicated (24 hrs or 6 hrs). The proteins were extracted with a lysis buffer and were separated on 10% SDS-Page gel. After being transferred onto nitrocellulose, the p53, p21 proteins and histone H3 were detected by Western blot using anti-p53 (pAb1801), anti-p21 (1/200, Oncogene) antibody and anti-phospho serine 10 of histone H3 (1/2000, Santacruz).
as §1

The subject of data set [1] is U-87 cells (a human glioblastoma). Description: In vivo test, U-87 cells grafted onto nude/nude SWISS mice. As to conditions: 18.5 mg/Kg intraperitoneally per injection, accumulated dose 185 mg/Kg. Here is the method:
The animals are manipulated under a laminar flow hood. Ten nude/nude (athymic) eleven week old SWISS mice were grafted subcutaneously with U-87 cells (a human glioblastoma) on the left thigh. After 7 days, the tumours become apparent and treatment commences. The animals are separated into two groups of five, 5 mice are thus treated with D-PBS (control mice) and the 5 others with RDC-11 (treated mice).
For the treated mice, 2 mg of RDC-11 placed in solution in 4 mL hot D-PBS for each injection. 0.5 mL of this solution cooled down to ambient temperature is administered intraperitoneally to each mouse. For the control mice, 0.5 mL D-PBS at ambient temperature is administered in the same way.
The dose of RDC-11 injected is 18.5 mg/Kg mouse. The accumulated dose is therefore 185 mg/Kg.
The development of the apparent tumours was followed by measuring them with calipers, by weighing the mice and by scanning one mouse from each batch with a CT-scan after injecting a contrast product (Fenestra VC). The mice were individualised by a mark on the ear.
The volume of the apparent tumours was calculated according to the formula:
V=(4/3)*π*(L/2)*(I/2)^2 where L is the length and I the width measured.

The test system of a further data set is RDM4 line. Description: Proliferation test (UptiBlue) on RDM4 line. The class given is cell-based, mouse. As to conditions: 72 hours. Here is the method: as §2, §3
This test uses the UptiBlue reagent (Interchim, Montluçon, France), metabolised by the living cells. The cells are incubated on plates with 96 wells with 10^4 cells/well (200 μL) with the product and cultivated for 72 hours. Then, 20 μL UptiBlue are added to each well. After 3 hours incubation, the fluorescence of the samples contained in the plates is measured at 590 nm (excitation at 560 nm), using a Fluorolite 1000 microplate reader (Dynex technologies, Issy-Les-Moulineaux, France).
The potential anti-cancers are first of all selected on the RDM4 line. The effect of the different organo-ruthenium compounds upon the cell viability is firstly determined by a proliferation test as a function of the product concentration. The activity of the compounds derived from Ru is compared to that of cisplatinum. The exposure of the RDM4 cells to these derivatives is translated by a dose-dependent reduction in their proliferation. Therefore, the effect is dependent upon the organic complex which surrounds the Ru nucleus. The inhibition concentration of the growth of 50% of the cells (IC50) is determined for each of the products. […] The ruthenium derivatives showing an excessive IC50 (>50 μM) were eliminated from the biological study.

As to `N.N.[Cl][Pt][Cl]` [Cisplatinum, reference compound], in the data set on A172 cells (10 μM, 24 hours treatment), the “expression of p21 and Bax” value was “induces the expression of p21 and Bax”. Moreover, the p53 proteic levels result with A172 cells (6 hrs treatment) is reported as “induce p53”; with A172 cells (24 hrs treatment), “induces the p53 proteic levels”. Also, in the data set with MOLT-4, the IC50 is less than 0.5 µM. In addition, the “increase in expression of p21 and inhibition of phosphorylation of histone H3” value with HCT116 cells was “identical for CDR 6 and cisplatinum”.

Regarding “[Ru(C6H4-2-C5H4N)(phen)(NCMe)2]PF6 [Compound 11]”, the “toxicity in grafted mice” value in data set [1] is recorded as “without any toxicity”. In addition, the “weight and volume of the tumours / tumoral growth” value in data set [1] (listed as RDC-11) was “less in relation to the controls; also recorded: changes the nature of tumoral growth”. Also, the IC50 in the data set with RDM4 line is 11 µM.
